Reference: patent US6559140B2 (Abbott Laboratories, priority 2000, dated 2003)

Molecular target: H3 receptor (Rattus norvegicus, UniProt Q9QYN8)
Experiment: H3 receptor binding, (3H)-N-α-methylhistamine displacement in rat cortical membranes
Details: male Sprague-Dawley rat brain cortical membranes, 30 minutes at 25° C., Cheng-Prusoff, geometric mean values of 2-10 separate experiments

Sequence of H3 receptor (Q9QYN8 1-397 isoform Q9QYN8-3): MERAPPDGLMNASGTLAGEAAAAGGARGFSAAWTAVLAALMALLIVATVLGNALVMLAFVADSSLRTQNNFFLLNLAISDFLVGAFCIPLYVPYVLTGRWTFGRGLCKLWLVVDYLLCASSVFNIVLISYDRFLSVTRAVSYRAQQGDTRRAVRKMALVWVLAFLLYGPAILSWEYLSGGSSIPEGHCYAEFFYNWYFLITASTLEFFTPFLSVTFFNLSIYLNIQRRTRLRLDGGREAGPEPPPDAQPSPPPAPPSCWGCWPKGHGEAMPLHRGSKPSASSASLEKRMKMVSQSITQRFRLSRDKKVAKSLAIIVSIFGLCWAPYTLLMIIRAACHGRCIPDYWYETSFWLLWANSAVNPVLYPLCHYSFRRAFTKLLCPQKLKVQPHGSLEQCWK

Row | Molecule | Ki
1 | COc1ccc(OC)c(C(=O)N[C@H](C)C(=O)N2CCN(CCCOc3ccc(C(=O)C4CC4)cc3)CC2)c1 [Example 197, N-[(1R)-2-(4-{3-[4-(cyclopropylcarbonyl)phenoxy]propyl}-1-piperazinyl)-1-methyl-2-oxoethyl]-2,5-dimethoxybenzamide] | 3.1 nM
2 | COc1ccc(-c2nc(-c3ccc(OCCCN4CCN(C(=O)[C@@H](C)NC(=O)c5cccs5)CC4)cc3F)no2)cc1 [Example 198, N-{(1R)-2-[4-(3-{3-fluoro-4-[5-(4-methoxyphenyl)-1,2,4-oxadiazol-3-yl]phenoxy}propyl)-1-piperazinyl]-1-methyl-2-oxoethyl}-2-thiophenecarboxamide] | 25.9 nM
3 | Tert-butyl (1R)-1-benzyl-2-(4-(3-(4-(cyclopropylcarbonyl)phenoxy)propyl)-1-piperazinyl)-2-oxoethylcarbamate [Example 79] | 4.78 nM

Now those with a lower Ki, led by results:

Row | Ki | Molecule
4 | 1.11 nM | COc1cccc(C(=O)N[C@H](C)C(=O)N2CCN(CCCOc3ccc(C(=O)C4CC4)cc3)CC2)c1 [Example 193, N-[(1R)-2-(4-{3-[4-(cyclopropylcarbonyl)phenoxy]propyl}-1-piperazinyl)-1-methyl-2-oxoethyl]-3-methoxybenzamide]
5 | 1.18 nM | C[C@@H](NC(=O)c1ccc(Br)cc1)C(=O)N1CCN(CCCOc2ccc(C(=O)C3CC3)cc2)CC1 [Example 194, 4-bromo-N-[(1R)-2-(4-{3-[4-(cyclopropylcarbonyl)phenoxy]propyl}-1-piperazinyl)-1-methyl-2-oxoethyl]benzamide]
6 | 1.37 nM | C[C@@H](NC(=O)c1ccc(Oc2ccccc2)cc1)C(=O)N1CCN(CCCOc2ccc(C(=O)C3CC3)cc2)CC1 [Example 195]
7 | 2.08 nM | Cc1cc(C)cc(C(=O)N[C@H](C)C(=O)N2CCN(CCCOc3ccc(C(=O)C4CC4)cc3)CC2)c1 [Example 196, N-[(1R)-2-(4-{3-[4-(cyclopropylcarbonyl)phenoxy]propyl}-1-piperazinyl)-1-methyl-2-oxoethyl]-3,5-dimethylbenzamide]
